Laboratory results: US11629171B2, “Beta-hairpin peptidomimetics” (POLYPHOR AG, priority 2017, dated 2023)
≈ marks a conversion by molar mass, not a printed value. Where a SMILES comes first, the peptide text is derived from it. Bridges are numbered along the chain shown (N, C = ends). Roman numbers before positions name the chains, in order. [ ]: non-standard residue; d: D form. The star is where a group is joined. Thr(ol) = C[C@@H](O)[C@H](N)CO; Tle = CC(C)(C)[C@H](N)C(=O)O; NMeV = CN[C@H](C(=O)O)C(C)C; Hiv = CC(C)[C@H](O)C(=O)O; dDab = NCC[C@@H](N)C(=O)O; hSer = N[C@@H](CCO)C(=O)O; Dab = NCC[C@H](N)C(=O)O; Dap = NC[C@H](N)C(=O)O; NHCH2CH2OH = OCCN*

Tests used:
Assay type in all cases: cell-based
[1] = test system: Klebsiella pneumoniae SSI #3010; conditions: SSI #3010
Procedure, shortened: (§1)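 CLSI broth microdilution: inoculum ~10^6 CFU/mL in cation-adjusted Mueller-Hinton II broth, with peptide in serial two-fold dilutions plus Polysorbate 80 (0.002% final). MIC (μg/mL) is the lowest concentration without visible growth after 18-20 hours at 35° C.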

[2] = test system: Enterobacter cloacae 848840; conditions: 848840
Procedure, shortened: as §1

[3] = test system: Klebsiella pneumoniae 968733; conditions: 968733
Procedure, shortened: as §1

[4] = test system: Acinetobacter baumannii DSM 30008; conditions: DSM 30008
Procedure, shortened: as §1

[5] = test system: Acinetobacter baumannii 872842; conditions: 872842
Procedure, shortened: as §1

[6] = test system: Pseudomonas aeruginosa ATCC 27853; conditions: ATCC 27853
Procedure, shortened: as §1

[7] = test system: Escherichia coli 926415; conditions: 926415
Procedure, shortened: as §1

[8] = test system: Escherichia coli ATCC 25922; conditions: ATCC 25922
Procedure, shortened: as §1

[9] = test system: human red blood cells (hRBC); assay: Hemolysis; conditions: red cells of human, 1 h, 200
Procedure, shortened: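 Washed fresh human RBC (20% v/v) incubated with peptide at 200 μg/mL for 1 h at 37° C with shaking. Supernatant OD540 measured after dilution, blank corrected; percent hemolysis = OD540 peptide / OD540 of 2% Triton X-100 lysis × 100, PBS with 10% water as 0%.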

MIC [1] [µg/mL] | MIC [2] [µg/mL] | MIC [3] [µg/mL] | MIC [4] [µg/mL] | MIC [5] [µg/mL] | MIC [6] [µg/mL] | MIC [7] [µg/mL] | MIC [8] [µg/mL] | Klebsiella pneumoniae SSI #3010 MIC [1] [µg/mL] | Acinetobacter baumannii DSM 30008 MIC [4] [µg/mL] | Pseudomonas aeruginosa ATCC 27853 MIC [6] [µg/mL] | Escherichia coli ATCC 25922 MIC [8] [µg/mL] | SMILES | Hemolysis at 200 μg/mL [9] [%]
0.125 (≈ 0.0479 µM) | 4 (≈ 1.53 µM) | 4 (≈ 1.53 µM) | 0.5 (≈ 0.192 µM) | 1 (≈ 0.383 µM) | 0.25 (≈ 0.0958 µM) | 0.25 (≈ 0.0958 µM) | 0.125 (≈ 0.0479 µM) |  |  |  |  | CC(=O)N[C@@H](CCN)C(=O)N[C@H](C(=O)N[C@H](C(=O)N[C@@H](Cc1ccc(O)cc1)C(=O)N[C@@H](CN)C(=O)N[C@@H](CCC(=O)N[C@@H](CCN)C(=O)N[C@H](C(=O)N[C@@H](CN)C(=O)N[C@H]1CCNC(=O)[C@H]([C@@H](C)O)NC(=O)[C@H](CCN)NC(=O)[C@H](CCN)NC(=O)[C@H](CC(C)C)NC(=O)[C@@H](CC(C)C)NC(=O)[C@H](CCN)NC1=O)[C@@H](C)O)C(=O)N[C@H](CCN)C(=O)N[C@@H](CCN)C(=O)N[C@@H](Cc1c[nH]c2ccccc12)C(=O)N[C@@H](CO)C(=O)N[C@H](C(=O)N[C@@H](C)C(=O)N[C@@H](CO)C(=O)N[C@@H](CCC(=O)O)C(N)=O)C(C)(C)C)[C@@H](C)O)C(C)C [Ex. 248] (I: Ac-[Dab]VTY[Dap]E[dDab][Dab]WS[Tle]ASE-NH2 / II: [Dab]T[Dap][Dab][Dab][dL]L[Dab][Dab]T; amide I:6-II:N; lactam II:4-II:C) | <1
0.125 (≈ 0.0515 µM) | 0.25 (≈ 0.103 µM) | 0.5 (≈ 0.206 µM) | 0.0625 (≈ 0.0258 µM) | 0.25 (≈ 0.103 µM) | 0.125 (≈ 0.0515 µM) | 0.5 (≈ 0.206 µM) | 0.0625 (≈ 0.0258 µM) |  |  |  |  | CC(=O)N[C@H](C(=O)N[C@H]1CSSC[C@@H](C(=O)N[C@@H](CO)C(N)=O)NC(=O)[C@H](C(C)C)NC(=O)[C@H](CO)NC(=O)[C@H](Cc2c[nH]c3ccccc23)NC(=O)[C@H]([C@@H](C)O)NC(=O)[C@@H](CCN)NC(=O)[C@H](CCC(=O)N[C@@H](CCN)C(=O)N[C@H](C(=O)N[C@@H](CCN)C(=O)N[C@H]2CCNC(=O)[C@H]([C@@H](C)O)NC(=O)[C@H](CCN)NC(=O)[C@H](CCN)NC(=O)[C@H](CC(C)C)NC(=O)[C@@H](CC(C)C)NC(=O)[C@H](CCN)NC2=O)[C@@H](C)O)NC(=O)[C@H](CCN)NC(=O)[C@H](Cc2ccc(O)cc2)NC1=O)C(C)C [Ex. 45] (I: Ac-VCY[Dab]E[dDab]TWSVCS-NH2 / II: [Dab]T[Dab][Dab][Dab][dL]L[Dab][Dab]T; disulfide I:2-I:11; amide I:5-II:N; lactam II:4-II:C) | <1
0.25 (≈ 0.105 µM) | 1 (≈ 0.422 µM) | 8 (≈ 3.38 µM) | 0.125 (≈ 0.0527 µM) | 1 (≈ 0.422 µM) | 0.25 (≈ 0.105 µM) | 2 (≈ 0.844 µM) | 0.125 (≈ 0.0527 µM) |  |  |  |  | CN[C@H](C(=O)N[C@H](C(=O)N[C@@H](Cc1ccc(O)cc1)C(=O)N[C@H]1CSSC[C@@H](C(=O)N[C@H](C(=O)N[C@@H](C)C(=O)N[C@@H](CO)C(N)=O)C(C)C)NC(=O)[C@H](Cc2c[nH]c3ccccc23)NC(=O)[C@H](CO)NC(=O)[C@@H](CCN)NC(=O)[C@H](CCC(=O)N[C@@H](CCN)C(=O)N[C@H](C(=O)N[C@@H](CCN)C(=O)N[C@H]2CCNC(=O)[C@H]([C@@H](C)O)NC(=O)[C@H](CCN)NC(=O)[C@H](CCN)NC(=O)[C@H](CC(C)C)NC(=O)[C@@H](CC(C)C)NC(=O)[C@H](CCN)NC2=O)[C@@H](C)O)NC1=O)[C@@H](C)O)C(C)C [Ex. 184] (I: H-[NMeV]TYCE[dDab]SWCVAS-NH2 / II: [Dab]T[Dab][Dab][Dab][dL]L[Dab][Dab]T; disulfide I:4-I:9; amide I:5-II:N; lactam II:4-II:C) | <1
0.03125 (≈ 0.0129 µM) | 0.0625 (≈ 0.0259 µM) | 0.25 (≈ 0.104 µM) | 0.0625 (≈ 0.0259 µM) | 0.0625 (≈ 0.0259 µM) | 0.125 (≈ 0.0518 µM) | 0.25 (≈ 0.104 µM) | 0.03125 (≈ 0.0129 µM) |  |  |  |  | CC(=O)N[C@H](C(=O)N[C@H]1CSSC[C@@H](C(=O)N[C@@H](CO)C(N)=O)NC(=O)[C@H](C(C)(C)C)NC(=O)[C@H](CO)NC(=O)[C@H](Cc2c[nH]c3ccccc23)NC(=O)[C@H](CCN)NC(=O)[C@@H](CCN)NC(=O)[C@H](CCC(=O)N[C@@H](CCN)C(=O)N[C@H](C(=O)N[C@@H](CN)C(=O)N[C@H]2CCNC(=O)[C@H]([C@@H](C)O)NC(=O)[C@H](CCN)NC(=O)[C@H](CCN)NC(=O)[C@H]([C@@H](C)O)NC(=O)[C@@H](CC(C)C)NC(=O)[C@H](CCN)NC2=O)[C@@H](C)O)NC(=O)[C@H]([C@@H](C)O)NC(=O)[C@H](Cc2ccc(O)cc2)NC1=O)C(C)C [Ex. 262] (I: Ac-VCYTE[dDab][Dab]WS[Tle]CS-NH2 / II: [Dab]T[Dap][Dab][Dab][dL]T[Dab][Dab]T; disulfide I:2-I:11; amide I:5-II:N; lactam II:4-II:C) | 1
0.25 (≈ 0.0953 µM) | 2 (≈ 0.762 µM) | 4 (≈ 1.52 µM) | 0.5 (≈ 0.191 µM) | 4 (≈ 1.52 µM) | 0.25 (≈ 0.0953 µM) | 2 (≈ 0.762 µM) | 0.25 (≈ 0.0953 µM) |  |  |  |  | CC(=O)N[C@@H](CCN)C(=O)N[C@H](C(=O)N[C@H]1CSSC[C@@H](C(=O)N[C@H](C(=O)N[C@@H](C)C(=O)N[C@H](C(=O)N[C@@H](CCC(=O)O)C(N)=O)C(C)C)C(C)(C)C)NC(=O)[C@H](Cc2c[nH]c3ccccc23)NC(=O)[C@H](CO)NC(=O)[C@@H](CCN)NC(=O)[C@H](CCC(=O)N[C@@H](CCN)C(=O)N[C@H](C(=O)N[C@@H](CN)C(=O)N[C@H]2CCNC(=O)[C@H]([C@@H](C)O)NC(=O)[C@H](CCN)NC(=O)[C@H](CCN)NC(=O)[C@H](CC(C)C)NC(=O)[C@@H](CC(C)C)NC(=O)[C@H](CCN)NC2=O)[C@@H](C)O)NC(=O)[C@H](CN)NC(=O)[C@H](Cc2ccc(O)cc2)NC1=O)C(C)C [Ex. 246] (I: Ac-[Dab]VCY[Dap]E[dDab]SWC[Tle]AVE-NH2 / II: [Dab]T[Dap][Dab][Dab][dL]L[Dab][Dab]T; disulfide I:3-I:10; amide I:6-II:N; lactam II:4-II:C) | <1
0.125 (≈ 0.0503 µM) | 0.25 (≈ 0.101 µM) | 0.25 (≈ 0.101 µM) | 0.0625 (≈ 0.0252 µM) | 0.125 (≈ 0.0503 µM) | 0.125 (≈ 0.0503 µM) | 0.25 (≈ 0.101 µM) | 0.0625 (≈ 0.0252 µM) |  |  |  |  | CC(=O)N[C@H](C(=O)N[C@H]1CSSC[C@@H](C(=O)N[C@@H](Cc2ccc(O)cc2)C(=O)NCCO)NC(=O)[C@H](C(C)(C)C)NC(=O)[C@H](CO)NC(=O)[C@H](Cc2c[nH]c3ccccc23)NC(=O)[C@H](CCO)NC(=O)[C@@H](CCN)NC(=O)[C@H](CCC(=O)N[C@@H](CCN)C(=O)N[C@H](C(=O)N[C@@H](CCN)C(=O)N[C@H]2CCNC(=O)[C@H]([C@@H](C)O)NC(=O)[C@H](CCN)NC(=O)[C@H](CCN)NC(=O)[C@H](CC(C)C)NC(=O)[C@@H](CC(C)C)NC(=O)[C@H](CCN)NC2=O)[C@@H](C)O)NC(=O)[C@H](CCN)NC(=O)[C@H](CO)NC1=O)C(C)C [Ex. 71] (I: Ac-VCS[Dab]E[dDab][hSer]WS[Tle]CY-NHCH2CH2OH / II: [Dab]T[Dab][Dab][Dab][dL]L[Dab][Dab]T; disulfide I:2-I:11; amide I:5-II:N; lactam II:4-II:C) | 1
 | 2 (≈ 0.846 µM) | 4 (≈ 1.69 µM) |  | 1 (≈ 0.423 µM) |  | 2 (≈ 0.846 µM) |  | 0.0625 | 0.25 | 0.25 | 0.125 | CC(C)C[C@@H]1NC(=O)[C@@H](CC(C)C)NC(=O)[C@H](CCN)NC(=O)[C@@H](NC(=O)[C@H](CN)NC(=O)[C@@H](NC(=O)[C@H](CCN)NC(=O)CC[C@@H]2NC(=O)[C@H](CCN)NC(=O)[C@H](Cc3ccc(O)cc3)NC(=O)[C@@H](NC(=O)[C@@H](O)C(C)C)CCN(C)C(=O)C[C@@H](C(=O)N[C@@H](CO)C(N)=O)NC(=O)[C@H](C(C)C)NC(=O)[C@H](CO)NC(=O)[C@H](Cc3c[nH]c4ccccc34)NC(=O)[C@H](CO)NC(=O)[C@@H](CCN)NC2=O)[C@@H](C)O)CCNC(=O)[C@H]([C@@H](C)O)NC(=O)[C@H](CCN)NC(=O)[C@H](CCN)NC1=O [Ex. 304] | <1
0.0625 (≈ 0.026 µM) | 0.125 (≈ 0.0521 µM) | 0.0625 (≈ 0.026 µM) | 0.0625 (≈ 0.026 µM) | 0.0625 (≈ 0.026 µM) | 0.25 (≈ 0.104 µM) | 0.25 (≈ 0.104 µM) | 0.0625 (≈ 0.026 µM) |  |  |  |  | CC(C)C[C@@H]1NC(=O)[C@@H](CC(C)C)NC(=O)[C@H](CCN)NC(=O)[C@@H](NC(=O)[C@H](CCN)NC(=O)[C@@H](NC(=O)[C@H](CCN)NC(=O)CC[C@@H]2NC(=O)[C@H](CCN)NC(=O)[C@H](Cc3ccc(O)cc3)NC(=O)[C@@H](NC(=O)[C@@H](O)C(C)C)CSSC[C@@H](C(=O)N[C@H](CO)[C@@H](C)O)NC(=O)[C@H](C(C)(C)C)NC(=O)[C@H](CO)NC(=O)[C@H](Cc3c[nH]c4ccccc34)NC(=O)[C@H](CCO)NC(=O)[C@@H](CCN)NC2=O)[C@@H](C)O)CCNC(=O)[C@H]([C@@H](C)O)NC(=O)[C@H](CCN)NC(=O)[C@H](CCN)NC1=O [Ex. 74] (I: H-[Hiv]CY[Dab]E[dDab][hSer]WS[Tle]C[Thr(ol)] / II: [Dab]T[Dab][Dab][Dab][dL]L[Dab][Dab]T; disulfide I:2-I:11; amide I:5-II:N; lactam II:4-II:C) | <1
